What was measured:
Caco2 cells = test: Intracellular 5-ALA levels and 13C-isotope labelling (LC-MS) in Caco2 cells; assay type: cell-based, human
Method: (A) Heme content in Caco2 cells treated with 5 mM 5-ALA (black bars and white bars) or with 5 mM 5-ALA+0.5 mM SA (light grey outlined bars) for the indicated time points. […] Values are expressed as relative fluorescence intensity. Data represent mean±SEM, n=2. For statistical analyses, a two-way analysis of variance was used, followed by the Bonferroni correction for multiple group comparisons; **=p<0.01, ***=p<0.001. 5-ALA, 5-aminolevulinic acid; SA, succinylacetone. (B) Intracellular 5-ALA levels. […] Values are expressed as peak area/μg proteins. Data represent mean±SEM of n=4 wells pooled from two independent experiments. For statistical analyses, an unpaired Student's t-test was used; **=p<0.01. 5-ALA, 5-aminolevulinic acid. (C, D) Accumulation of ^13C2-5-ALA in cells incubated with U-^13C-glucose (C) or of ^13C3-5-ALA in cells incubated with U-^13C-glutamine (D) for the indicated time. […] Values are expressed as peak area/μg proteins. Data represent mean±SEM of n=4 wells pooled from two independent experiments. For statistical analyses, a two-way analysis of variance was used, followed by the Bonferroni correction for multiple group comparisons; ***p<0.001. […] Transcript abundance, normalized to beta-actin mRNA expression, is expressed as a fold increase over a calibrator sample. […] Band intensities were measured by densitometry and normalized to vinculin expression. […]

SKCO1 cells = test: Mitochondrial ATP levels in SKCO1 cells; assay type: cell-based, human; conditions: FLVCR1a-silenced vs scramble shRNA SKCO1 cells
Excerpt: (A, C, E) Activities of the mitochondrial electron transport chain complexes I-IV. FLVCR1a-silenced Caco2 (A), SKCO1 (C) or C80 cells (E) are compared to cells expressing a scramble shRNA. Results were expressed as nmol NAD^+/min/mg mitochondrial protein for complex I, nmol reduced cytochrome c/min/mg mitochondrial protein for complexes II-III, nmol oxidized cytochrome c/min/mg mitochondrial protein for complex IV. Data represent mean±SEM, n=3. For statistical analyses, an unpaired Student's t-test was used; *=p<0.05, **=p<0.01. (B, D, F) Mitochondrial ATP levels measured by a bioluminescent assay kit. FLVCR1a-silenced Caco2 (B), SKCO1 (D) or C80 cells (F) are compared to cells expressing a scramble shRNA. Results are expressed as nmol/mg mitochondrial proteins. […] Results were expressed as nmol NAD^+/min/mg mitochondrial protein for complex I, nmol reduced cytochrome c/min/mg mitochondrial protein for complexes II-III, nmol oxidized cytochrome c/min/mg mitochondrial protein for complex IV. […] (H) Mitochondrial ATP levels measured by a bioluminescent assay kit in Caco2 cells overexpressing FLVCR1a (indicated as FLVCR1a+) compared to cells stably transduced with an empty vector. Results are expressed as nmol/mg mitochondrial proteins. […]
ATP levels in mitochondria extracts were assessed by the ATP Bioluminescent Assay Kit (Sigma-Aldrich, St. Louis, MO USA, catalog n° FLAA). […]

“FLVCR1a shRNA: shRNA specifically down-regulating FLVCR1a without targeting FLVCR1b; pLKO.1 lentiviral clone TRCN0000059599, antisense SEQ ID No.: 2 (antisense TTGCTAATGATGCTGTACTGG; sense CCAGTACAGCATCATTAGCAA)” was tested, and the “Intracellular 5-ALA levels” value (Caco2 cells; FLVCR1a-silenced vs scramble shRNA Caco2 cells) was “lower amount of 5-ALA”, the “incorporation of labelled carbons in 5-ALA” value (Caco2 cells; U-13C-glucose or U-13C-glutamine, time course, FLVCR1a-silenced vs scramble) was “reduced incorporation of labelled carbons in 5-ALA” and the “mitochondrial ATP levels” value (SKCO1 cells) was “increased”.
